Source: ChEMBL document CHEMBL1121670, “Aporphines. 34. (-)-2,10,11-Trihydroxy-N-n-propylnoraporphine, a novel dopaminergic aporphine alkaloid with anticonvulsant activity” (1981)

What was measured:
Mus musculus [1] = species: Mus musculus; experiment: Evaluated for audiogenic seizures in DBA/ 2 mice, in the protection against paroxysimal EEG at an interval of 20 minutes; assay type: functional
Papio papio [2] = experiment: Duration of protection for abolition of myoclonic responses to photic stimulation in the baboon (Papio papio) at 0.5 mg/kg; Duration of protection ranges from 30-45 min; assay type: functional
[3] = biological target: Adenylate cyclase type 5 (Homo sapiens) (UniProt O95622); experiment: Compound was evaluated for the elicited effect on adenylate cyclase activity in homogenates of carp retina at 10 uM; assay type: functional, tissue-based; details: Cyprinus carpio
Mus musculus [4] = species: Mus musculus; experiment: Evaluated for audiogenic seizures in DBA/ 2 mice, in the protection against paroxysimal EEG at an interval of 30 minutes; assay type: functional; details: 0.5 h
Papio papio [5] = experiment: Duration of protection for abolition of myoclonic responses to photic stimulation in the baboon (Papio papio) at 0.2 mg/kg; Duration of protection ranges from 180-300 min; assay type: functional
Mus musculus [6] = species: Mus musculus; experiment: Evaluated for audiogenic seizures in DBA/ 2 mice, in the protection against paroxysimal EEG at an interval of 60 minutes; assay type: functional; details: 1 h
Papio papio [7] = experiment: Duration of protection for abolition of myoclonic responses to photic stimulation in the baboon (Papio papio) at 0.2 mg/kg; assay type: functional

Chain of Adenylate cyclase type 5 (Homo sapiens) (O95622 whole entry, looked up): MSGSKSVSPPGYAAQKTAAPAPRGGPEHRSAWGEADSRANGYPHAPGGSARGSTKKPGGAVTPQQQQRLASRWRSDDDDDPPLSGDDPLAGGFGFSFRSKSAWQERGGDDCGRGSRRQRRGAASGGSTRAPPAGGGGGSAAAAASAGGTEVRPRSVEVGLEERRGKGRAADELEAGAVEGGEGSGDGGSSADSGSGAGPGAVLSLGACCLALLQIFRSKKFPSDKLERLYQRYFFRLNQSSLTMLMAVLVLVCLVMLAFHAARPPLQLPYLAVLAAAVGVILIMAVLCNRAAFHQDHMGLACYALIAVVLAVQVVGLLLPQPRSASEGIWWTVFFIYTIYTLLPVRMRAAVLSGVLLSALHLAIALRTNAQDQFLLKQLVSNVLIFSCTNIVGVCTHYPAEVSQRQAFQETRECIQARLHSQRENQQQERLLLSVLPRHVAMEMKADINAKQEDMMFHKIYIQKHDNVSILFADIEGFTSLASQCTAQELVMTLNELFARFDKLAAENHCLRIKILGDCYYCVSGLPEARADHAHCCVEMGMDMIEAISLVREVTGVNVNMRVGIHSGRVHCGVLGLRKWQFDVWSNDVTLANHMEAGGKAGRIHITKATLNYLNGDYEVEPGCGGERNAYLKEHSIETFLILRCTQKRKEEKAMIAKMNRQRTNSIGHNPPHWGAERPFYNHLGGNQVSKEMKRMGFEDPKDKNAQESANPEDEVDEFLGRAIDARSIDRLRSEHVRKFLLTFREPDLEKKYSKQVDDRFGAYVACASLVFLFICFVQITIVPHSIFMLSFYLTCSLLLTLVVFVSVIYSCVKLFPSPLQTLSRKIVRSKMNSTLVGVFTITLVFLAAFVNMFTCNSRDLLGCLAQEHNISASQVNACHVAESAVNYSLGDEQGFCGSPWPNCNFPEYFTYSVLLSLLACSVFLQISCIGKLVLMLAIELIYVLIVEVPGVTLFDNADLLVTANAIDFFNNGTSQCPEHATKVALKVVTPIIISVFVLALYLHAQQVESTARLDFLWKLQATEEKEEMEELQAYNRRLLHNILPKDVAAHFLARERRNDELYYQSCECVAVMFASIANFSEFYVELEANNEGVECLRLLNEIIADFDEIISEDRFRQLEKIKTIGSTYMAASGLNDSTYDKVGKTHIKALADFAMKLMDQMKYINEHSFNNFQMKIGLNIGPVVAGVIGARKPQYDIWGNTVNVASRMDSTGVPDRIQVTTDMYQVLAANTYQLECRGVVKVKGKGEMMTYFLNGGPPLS

## CN1CCc2cccc3c2[C@H]1Cc1ccc(O)c(O)c1-3 [APOMORPHINE]
Mus musculus [1]
  ED50: 0.7 mg/kg
Papio papio [2]
  Duration: 30 min

## CCCN1CCc2cc(O)cc3c2[C@H]1Cc1ccc(O)c(O)c1-3
[3]
  Response: 43.4%
Mus musculus [4]
  ED50: 0.72 mg/kg
Papio papio [5]
  Duration: 180 min

## CC(C)C[C@H]1C(=O)N2CCC[C@H]2[C@]2(O)O[C@](NC(=O)[C@@H]3C=C4c5cccc6[nH]c(Br)c(c56)C[C@H]4N(C)C3)(C(C)C)C(=O)N12 [BROMOCRIPTINE]
Mus musculus [6]
  ED50: 5 mg/kg

## CCCN1CCc2cccc3c2[C@H]1Cc1ccc(O)c(O)c1-3 [R-N-PROPYLNORAPOMORPHINE]
Mus musculus [4]
  ED50: 0.075 mg/kg
Papio papio [7]
  Duration: 180 min
